Paper PMC5365662, “A Short Double-Stapled Peptide Inhibits Respiratory Syncytial Virus Entry and Spreading” (Antimicrobial Agents and Chemotherapy, 2017)
Bridge positions count the residues as written; N and C are the ends. Square brackets hold non-standard residues; d marks the D form. Peptide text beside a SMILES is read from it. R8 = C=CCCCCCC[C@@](C)(N)C(=O)O; S5 = C=CCCC[C@](C)(N)C(=O)O

How the values were obtained:
[1] = circular dichroism; details: 10 mM phosphate; pH 7.5; 25 °C; 50 uM
[2] = molecular target: 5HB, a recombinant protein containing 3 HR1 domains covalently attached to 2 HR2 domains; details: for Kd: competition with fluorescently labeled T108 probe (2 nM), 5HB 50 nM, 10 min preincubation + 30 min room temperature, duplicates; for competition with binding of fluorescently labeled T108 to recombinant 5HB (in words): Ala-scan variants, FP
From the text: The RSV HR2 region (residues 476 to 524) is a 49-amino-acid sequence that has been extensively characterized (Fig. 1). HR2 is a largely unstructured peptide in aqueous solution folding into an α-helix upon binding to trimeric HR1 coiled coils ([20]). […] We reduced HR2 (aa 483 to 516) into three short overlapping subdomains (subdomains 1 to 3) (Fig. 1). These peptides were scanned for various stapling combinations. […] Far-UV circular dichroism (CD) spectropolarimetry was used to investigate the effect of stapling on the α-helical content of the peptides. […] To assess the propensity of the stapled peptides to hinder the formation of the postfusion six-helix bundle required for viral cell entry, we used a 5-helix bundle (5HB) biochemical fluorescence polarization (FP) competition assay as previously described ([21], [22]).
The coding sequence of 5HB was designed as described previously and de novo synthesized by Genscript ([21]). The HR1 (aa 126 to 182) and HR2 (aa 476 to 524) coding sequences from wild-type RSV A2 strain F ([36]) were codon optimized for overexpression in Escherichia coli and cloned at NdeI/BamHI restriction sites of pET-15b to generate the expression plasmid for 5HB. The 5HB expression construct was transformed into Escherichia coli BL21(DE3). Cells were grown at 37°C to an optical density at 600 nm of 0.8 followed by induction with isopropyl-1-thio-β-D-galactopyranoside at a final concentration of 0.5 mM for 12 to 15 h. Cells were harvested by centrifugation, washed twice with PBS, and resuspended in 20 ml of PBS (pH 7.4), 500 mM NaCl, and 1% Triton X-100 supplemented with complete protease inhibitor. Cell suspensions were disrupted by sonication. Cell debris was removed through ultracentrifugation at 18,000 × g for 1 h at 4°C, and clarified cell lysate was mixed with 1 ml of nickel-nitrilotriacetic acid (Ni-NTA) agarose beads (Qiagen) preequilibrated with 20 ml of lysis buffer. The suspension was agitated for 1 h at 4°C and loaded onto a 5-ml polypropylene column (Qiagen). The column was washed twice with 8 ml of PBS (pH 7.4), 500 mM NaCl, 1% Triton X-100, and 100 mM imidazole. Proteins were eluted with 5 × 500 μl of a buffer containing PBS (pH 7.4), 300 mM imidazole, and 500 mM NaCl. The imidazole was removed by dialysis, and protein purity was assessed by SDS-polyacrylamide gel electrophoresis followed by Coomassie blue staining. Protein concentration was determined with the Qubit 2.0 Fluorometer (Life Technologies).
The T108 ([12]) peptide probe was synthesized by standard SPPS procedures using HCTU as a coupling reagent as described above. A 10-μl volume of recombinant 5HB protein in FP buffer (20 mM PBS [pH 7.4], 500 mM NaCl, 0.01% [vol/vol] Tween 20, and 0.05 mg/ml bovine gamma globulin) was preincubated for 10 min at room temperature with 10 μl of the appropriate concentration of the inhibitor, after which 10 μl of fluorescein isothiocyanate (FITC)-T106 was added and further incubated for 30 min at room temperature. The final concentrations of protein and probe were 50 nM and 2 nM, respectively. The fluorescence polarization assay was performed in 384-well plates using a Spectramax Paradigm (Molecular Devices), using excitation and emission wavelengths of 485 nm and 535 nm, respectively. The acquisition time was 700 ms, and the read height was 1 mm. All experiments were performed in duplicate. […] In order to ensure robust fitting for some fits, r0 was kept constant at the value measured for the free tracer in buffer.

[3] = system: recombinant GFP-expressing RSV (strain A2) in A549 cells; type: cell-based, human respiratory syncytial virus; details: A549 cells, eGFP RSV, GFP-positive cells by FACS 24 h p.i.
Description: A549 cells were infected with a recombinant green fluorescent protein (GFP)-expressing RSV (strain A2) ([23]), and the inhibitory activity of the peptide was quantified by flow cytometry.
Each peptide was diluted 3 times by 2-fold serial dilutions. eGFP RSV virus at an MOI of 0.5 was used for the infection, and GFP-positive cells were counted by FACS analysis 24 h p.i. The GFP data were normalized to the fluorescence values observed with virus only and plotted as percent inhibition.
Serial 4-fold dilutions of inhibitors were mixed with eGFP-encoding RSV virus ([23]) with a volume of virus required to achieve approximately 50% of infection in medium containing 2% fetal calf serum. The resulting mixture was added to 24-well plates containing A549 cells. Cells were incubated for 2 h at 37°C, the medium was replaced, and cells were incubated for an additional 24 h. Cells were treated with 300 μl of trypsin for 10 min at 37°C, and the detached cells were diluted in 1 ml of culture medium. Following centrifugation at 1,700 rpm, the pellet was resuspended in 300 μl of PBS–1% fetal bovine serum (FBS) (vol/vol) and GFP-positive cells were counted by fluorescence-activated cell sorter (FACS) analysis. The GFP data were normalized to the fluorescence value observed with virus only. The resulting inhibition curves were fitted in Igor Pro as described above.

[4] = system: rHRSV-mCherry in HEp-2 cells; test: rHRSV-mCherry inhibition assay; type: cell-based, human respiratory syncytial virus; details: Table 3 (Ala scan); HEp-2 cells, rHRSV-mCherry MOI 0.2, 2-fold serial dilutions (11 dilutions), duplicate; ± SD of fit
How it was run: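 HEp-2 cells infected at MOI 0.2 with rHRSV-mCherry preincubated 15–20 min with serially diluted peptide, peptide kept in 2% FBS medium for 48 h at 37°C. Replication read as mCherry fluorescence (ex 580/em 620 nm), normalized to untreated infected cells; duplicates, curves fitted.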

SMILES: CC[C@H](C)[C@H](NC(=O)[C@H](Cc1ccccc1)NC(=O)[C@H](C)NC(=O)[C@H](CC(C)C)NC(=O)[C@H](CO)NC(=O)[C@H](CCC(N)=O)NC(=O)[C@H](CCC(=O)O)NC(C)=O)C(=O)N[C@@H](CCCNC(=N)N)C(=O)N[C@]1(C)CCCCCCC=CCCC[C@@](C)(C(=O)N[C@H](C(N)=O)C(C)C)NC(=O)[C@H](Cc2c[nH]cn2)NC(=O)[C@H](CC(C)C)NC(=O)[C@H](CC(C)C)NC(=O)[C@H](CCC(=O)O)NC(=O)[C@H](CC(=O)O)NC(=O)[C@H](CO)NC1=O [Peptide 3f] (Ac-EQSLAFIR[R8]SDELLH[S5]V-NH2; staple 9-16)
- helicity [1]: 26.4%
- Kd [2]: 4.1 ± 1.9 µM
- inhibition of RSV-eGFP infection (in words) [3]: none

SMILES: CC[C@H](C)[C@@H]1NC(=O)[C@H](Cc2ccccc2)NC(=O)[C@@](C)(NC(=O)[C@H](CC(C)C)NC(=O)[C@H](CO)NC(=O)[C@H](CCC(N)=O)NC(=O)[C@H](CCC(=O)O)NC(C)=O)CCCC=CCCC[C@@](C)(C(=O)N[C@@H](CO)C(=O)N[C@@H](CC(=O)O)C(=O)N[C@@H](CCC(=O)O)C(=O)N[C@@H](CC(C)C)C(=O)N[C@@H](CC(C)C)C(=O)N[C@@H](Cc2c[nH]cn2)C(=O)N[C@@H](CC(N)=O)C(=O)N[C@H](C(N)=O)C(C)C)NC(=O)[C@H](CCCNC(=N)N)NC1=O [Peptide 3a] (Ac-EQSL[S5]FIR[S5]SDELLHNV-NH2; staple 5-9)
- helicity [1]: 33.9%
- Kd [2]: 5.8 ± 1.8 µM
- inhibition of RSV-eGFP infection (in words) [3]: none

SMILES: CC[C@H](C)[C@@H]1NC(=O)[C@H](Cc2ccccc2)NC(=O)[C@H](C)NC(=O)[C@H](CC(C)C)NC(=O)[C@H](CO)NC(=O)[C@](C)(NC(=O)[C@H](CCC(=O)O)NC(C)=O)CCCCCCC=CCCC[C@@](C)(C(=O)N[C@@H](CO)C(=O)N[C@@H](CC(=O)O)C(=O)N[C@@H](CCC(=O)O)C(=O)N[C@@H](CC(C)C)C(=O)N[C@@H](CC(C)C)C(=O)N[C@@H](Cc2c[nH]cn2)C(=O)N[C@@H](CC(N)=O)C(=O)N[C@H](C(N)=O)C(C)C)NC(=O)[C@H](CCCNC(=N)N)NC1=O [Peptide 3d] (Ac-E[R8]SLAFIR[S5]SDELLHNV-NH2; staple 2-9)
- helicity [1]: 24.4%
- Kd [2]: 3.2 ± 2.7 µM
- inhibition of RSV-eGFP infection (in words) [3]: none

SMILES: CC[C@H](C)[C@H](NC(=O)[C@H](CCCCN)NC(=O)[C@H](CCC(=O)O)NC(C)=O)C(=O)N[C@@]1(C)CCCC=CCCC[C@@](C)(C(=O)N[C@@H](Cc2ccccc2)C(=O)N[C@@H](C)C(=O)N[C@@]2(C)CCCC=CCCC[C@@](C)(C(=O)N[C@@H](CC(C)C)C(=O)N[C@@H](CC(C)C)C(=O)N[C@@H](Cc3c[nH]cn3)C(=O)N[C@@H](CC(N)=O)C(=O)N[C@H](C(N)=O)C(C)C)NC(=O)[C@H](CC(=O)O)NC(=O)[C@H](CO)NC(=O)[C@H](CCCCN)NC2=O)NC(=O)[C@H](CC(C)C)NC(=O)[C@H](CO)NC(=O)[C@H](CCC(N)=O)NC1=O [Peptide I506A] (Ac-EKI[S5]QSL[S5]FA[S5]KSD[S5]LLHNV-NH2; staple 4-8, 11-15)
- helicity [1]: 22%
- competition with binding of fluorescently labeled T108 to recombinant 5HB (in words) [2]: none of these variants were able to compete
- EC50 [4]: 10.4 ± 2.97 µM

SMILES: CC[C@H](C)[C@H](NC(=O)[C@H](Cc1ccccc1)NC(=O)[C@]1(C)CCCC=CCCC[C@](C)(NC(=O)[C@@H](NC(=O)[C@H](CCCCN)NC(=O)[C@H](CCC(=O)O)NC(C)=O)[C@@H](C)CC)C(=O)N[C@@H](CCC(N)=O)C(=O)N[C@@H](CO)C(=O)N[C@@H](CC(C)C)C(=O)N1)C(=O)N[C@@]1(C)CCCC=CCCC[C@@](C)(C(=O)N[C@@H](CC(C)C)C(=O)N[C@@H](CC(C)C)C(=O)N[C@@H](Cc2c[nH]cn2)C(=O)N[C@@H](CC(N)=O)C(=O)N[C@H](C(N)=O)C(C)C)NC(=O)[C@H](CC(=O)O)NC(=O)[C@H](C)NC(=O)[C@H](CCCCN)NC1=O [Peptide S509A] (Ac-EKI[S5]QSL[S5]FI[S5]KAD[S5]LLHNV-NH2; staple 4-8, 11-15)
- helicity [1]: 62%
- competition with binding of fluorescently labeled T108 to recombinant 5HB (in words) [2]: none of these variants were able to compete
- EC50 [4]: 82 ± 1.56 µM

SMILES: CC[C@H](C)[C@@H]1NC(=O)[C@H](CO)NC(=O)[C@](C)(NC(=O)[C@H](CC(=O)O)NC(=O)[C@H](Cc2ccccc2)NC(C)=O)CCCCCCC=CCCC[C@@](C)(C(=O)N[C@@H](CCCCN)C(=O)N[C@H](C(=O)N[C@@H](CC(N)=O)C(=O)N[C@@H](CCC(N)=O)C(=O)N[C@@H](CO)C(=O)N[C@@H](CC(C)C)C(=O)N[C@@H](C)C(=O)N[C@@H](Cc2ccccc2)C(=O)N[C@H](C(=O)N[C@]2(C)CCCCCCC=CCCC[C@@](C)(C(=O)N[C@@H](CC(N)=O)C(=O)N[C@H](C(=O)N[C@@H](CC(N)=O)C(=O)N[C@@H](C)C(=O)NCC(=O)N[C@@H](CCCCN)C(=O)N[C@@H](CO)C(=O)N[C@H](C(N)=O)[C@@H](C)O)C(C)C)NC(=O)[C@H](CC(C)C)NC(=O)[C@H](CC(C)C)NC(=O)[C@H](CCC(=O)O)NC(=O)[C@H](CC(=O)O)NC(=O)[C@H](CO)NC(=O)[C@H](CCCCN)NC2=O)[C@@H](C)CC)[C@@H](C)CC)NC(=O)[C@H](CC(N)=O)NC(=O)[C@H](C(C)C)NC(=O)[C@H](CCC(N)=O)NC(=O)[C@H](CO)NC1=O [RSV-SAHBD (Z), reference compound]
- inhibition of RSV-eGFP infection (in words) [3]: potency similar to that of peptides 4bb and 4ca

SMILES: CC[C@H](C)[C@@H]1NC(=O)[C@H](Cc2ccccc2)NC(=O)[C@@](C)(NC(=O)[C@H](CC(C)C)NC(=O)[C@H](CO)NC(=O)[C@H](CCC(N)=O)NC(=O)[C@H](CC(N)=O)NC(=O)[C@@H](NC(=O)[C@H](CCCCN)NC(=O)[C@H](CCC(=O)O)NC(C)=O)[C@@H](C)CC)CCCC=CCCC[C@@](C)(C(=O)N[C@@H](CO)C(=O)N[C@@H](CC(=O)O)C(=O)N[C@@]2(C)CCCC=CCCC[C@@](C)(C(=O)N[C@H](C(N)=O)C(C)C)NC(=O)[C@H](Cc3c[nH]cn3)NC(=O)[C@H](CC(C)C)NC(=O)[C@H](CC(C)C)NC2=O)NC(=O)[C@H](C)NC1=O [Peptide R507A] (Ac-EKINQSL[S5]FIA[S5]SD[S5]LLH[S5]V-NH2; staple 8-12, 15-19)
- helicity [1]: 45%
- competition with binding of fluorescently labeled T108 to recombinant 5HB (in words) [2]: none of these variants were able to compete
- EC50 [4]: 175 µM
